Measured values: patent US9487462B2, “Inhibitors of matrix metalloproteinases” (PharmaHungary 2000 Kft., priority 2010, dated 2016)
Counter-ions that a name gives are not always drawn.

Experiments:
[1] = Cytotoxicity, alamarBlue viability, MRC-5; assay type: cell-based; conditions: human, MRC-5 fibroblast cells, 48 hours incubation, read-out: MRC-5 LC50
Description: (§1) Beside the inhibitory effect on MMPs we tested the cytotoxicity of the selected compounds. These measurements were done in parallel on two cell lines. One of them was the healthy human fibroblast cell line MRC-5 while the other was the human colon tumor cell line HCT116. The viability of the cells was monitored using alamarBlue. This dye is reduced by the cells resulting in an increased fluorescent signal which is proportional to the number of living cells. Cells were incubated with the dilutions of the tested compounds for 48 hours then alamarBlue was added to them for 4 hours. After that the fluorescence changes were detected using excitation at 540 nm and emission wavelength of 590 nm by a Wallac 1420 Microplate Reader. IC50 values were determined for the compounds using six concentrations and duplicate points for each concentration.

MMP9 = MMP9 (Homo sapiens, UniProt P14780); assay: MMP activity assay (fluorogenic substrate), MMP9 catalytic domain; assay type: biochemical; conditions: Table 2
Description: (§2) MMP activity assays were conducted as follows: MMP2, MMP9, MMP13 catalytic domain was expressed in E. coli in form of inclusion bodies followed by refolding and purification.
(§3) The Protocol of the Activity Assay:
(§4) Stock solution of substrate (Mca-Lys-Pro-Leu-Gly-Leu-Dpa-Ala-Arg-NH2) was prepared in DMSO at a concentration of 6 mM. Assays were performed in an assay buffer (50 mM Tris pH 7.5, 300 mM NaCl, 10 μM ZnSO4, 5 mM CaCl2, 0.005% Brij-35). The final DMSO concentration in all assays was 1.0%. […] The assays were carried out at 37° C. The fluorescence changes, resulting from the substrate cleavage, were detected using excitation at 340 nm and emission wavelength of 405 nm using a Wallac 1420 Microplate Reader. The reaction mixtures were preincubated with the inhibitors for 30 minutes. The reactions were started by the addition of MMP substrate, and the fluorescence intensity changes were measured after 60 minutes. The obtained fluorescence values were normalized and % inhibition values calculated. Dose response curves were determined from 6 concentration points using three fold dilution steps, each concentration point was determined in duplicate. IC50 values were calculated from the dose response curves.

MMP2 = MMP2 (Homo sapiens, UniProt P08253); assay: MMP activity assay (fluorogenic substrate), MMP2 catalytic domain; assay type: biochemical; conditions: Table 2; read-out: MMP2 IC50
Description: as §2, §3, §4

MMP13 = MMP13 (Homo sapiens (Human), UniProt P45452); assay: MMP activity assay (fluorogenic substrate), MMP13 catalytic domain; assay type: biochemical; conditions: Table 2; read-out: MMP13 IC50
Description: as §2, §3
as §4, with “The fluorescence changes, resulting from the substrate cleavage, were detected using excitation at 340 nm and emission wavelength of 405 nm using a Wallac 1420 Microplate Reader.” left out

[2] = Cytotoxicity, alamarBlue viability, HCT116; assay type: cell-based; conditions: human, HCT116 colon tumor cells, 48 hours incubation, read-out: HCT116 LC50
Description: as §1

MMP1 = MMP1 (Homo sapiens (Human), UniProt P03956); assay: MMP activity assay (fluorogenic substrate), MMP1; assay type: biochemical; conditions: Table 2; read-out: MM1 IC50
[3] = tested on: neonatal rat cardiac myocytes; assay: Cytoprotective effect in cardiac myocytes subjected to hypoxia and reoxygenation; assay type: cell-based
Description: Neonatal rat hearts were digested and isolated cardiomyocytes were plated onto 24-well plastic plates at […]. The cells were maintained at 37° C. in a humidified atmosphere of 5% CO2 and 95% air in a CO2 incubator until confluence was reached. Cultures at day 3 were used for treatments. Cells were kept under normoxic or simulated ischemic conditions, i.e. the growth medium was changed to a normoxic or hypoxic solution and the cells were incubated under 95% air and 5% CO2 or 95% N2 and 5% CO2 at 37° C. for 4 h, respectively as described in detail (Gorbe A, Giricz Z, Szunyog A, Csont T, Burley D S, Baxter G F, Ferdinandy P. Role of cGMP-PKG signaling in the protection of neonatal rat cardiac myocytes subjected to simulated ischemia/reoxygenation. Basic Res Cardiol. 105:643-650, 2010). The positive control ilomastate (0.5 microM) and MMP-inhibitors at different effective concentrations (EC 5, EC 10, EC 20, and EC50 as determined in previous test examples) were applied during normoxia or simulated ischemia and also during reoxygenation. The vehicle was DMSO. Cell viability was determined after Calcein A M fluorescent staining as described (Karliner J S, Honbo N, Summers K, Gray M O, Goetzl E J. The lysophospholipids sphingosine-1-phosphate and lysophosphatidic acid enhance survival during hypoxia in neonatal rat cardiac myocytes. J Mol Cell Cardiol, 33:1713-7, 2001). Total cell count was determined after digitonin treatment to permeabilize the cells by using propidium iodine fluorescent staining (Roy S S, Hajnoczky G. Calcium, mitochondria and apoptosis studied by fluorescence measurements. Methods. 46:213-223, 2008).

MMP1, sequence (P03956 100-469, species assumed): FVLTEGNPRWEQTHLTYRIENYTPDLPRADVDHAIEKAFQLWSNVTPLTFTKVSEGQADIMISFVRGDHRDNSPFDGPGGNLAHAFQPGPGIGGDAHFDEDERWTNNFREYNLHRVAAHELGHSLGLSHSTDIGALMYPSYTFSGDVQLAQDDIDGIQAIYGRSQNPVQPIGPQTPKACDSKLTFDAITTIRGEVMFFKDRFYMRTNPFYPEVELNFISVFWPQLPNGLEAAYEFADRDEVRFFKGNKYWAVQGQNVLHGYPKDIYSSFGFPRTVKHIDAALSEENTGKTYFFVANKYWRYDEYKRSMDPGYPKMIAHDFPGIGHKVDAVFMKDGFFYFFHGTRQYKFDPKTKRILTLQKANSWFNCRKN

IC50 (MMP9) [µM] | IC50 (MMP2) [µM] | IC50 (MMP13) [µM] | IC50 (MMP1) [µM] | Structure (SMILES) | CC50 at 48 h [1] [µM] | CC50 at 48 h [2] [µM] | also measured
163 | 105 | 3.7 | 185 | CCOC(=O)c1csc(CN(Cc2ccc(F)cc2)Cc2ccc(OCc3cccnc3)cc2)n1 [Compound 2, Ethyl 2-({[(4-fluorophenyl)methyl]({[4-(pyridin-3-ylmethoxy)phenyl]methyl})amino}methyl)-1,3-thiazole-4-carboxylate] | 0.8 | 0.5 | 
 |  |  |  | O=C(O)c1csc(CN(Cc2ccc(OCc3ccccc3)cc2)CC(c2ccccc2)c2ccccc2)n1 [Compound 6, 2-[({[4-(Benzyloxy)phenyl]methyl}(2,2-diphenylethyl)amino)methyl]-1,3-thiazole-4-carboxylic acid] | 18 | 3.5 | 
13 | 10 | 3.2 | 11 | O=C(O)c1csc(CN(Cc2ccccc2)Cc2ccccc2)n1 [Compound 7, 2-[(Dibenzylamino)methyl]-1,3-thiazole-4-carboxylic acid] | 117 | 73 | 
 |  |  |  | O=C(O)c1csc(CN(Cc2ccc(OCc3cccnc3)cc2)Cc2cccc(F)c2)n1 [Compound 8, 2-[({[4-(Pyridin-3-ylmethoxy)phenyl]methyl}[(3-fluorophenyl)methyl]amino)methyl]-1,3-thiazole-4-carboxylic acid] |  |  | Cytoprotective effect, % cell survival as compared to vehicle DMSO ([3]; normoxia, EC5 concentration 0.7 microM): 99 ± 4%; Cytoprotective effect, % cell survival as compared to vehicle DMSO ([3]; normoxia, EC10 concentration 2.0 microM): 103 ± 4%; Cytoprotective effect, % cell survival as compared to vehicle DMSO ([3]; normoxia, EC20 concentration 6.0 microM): 119 ± 5 %; Cytoprotective effect, % cell survival as compared to vehicle DMSO ([3]; normoxia, EC50 concentration 18.0 microM): 127 ± 4 %; Cytoprotective effect, % cell survival as compared to vehicle DMSO ([3]; simulated ischemia, EC5 concentration 0.7 microM): 117 ± 12%; Cytoprotective effect, % cell survival as compared to vehicle DMSO ([3]; simulated ischemia, EC10 concentration 2.0 microM): 120 ± 8%; Cytoprotective effect, % cell survival as compared to vehicle DMSO ([3]; simulated ischemia, EC20 concentration 6.0 microM): 144 ± 25%; Cytoprotective effect, % cell survival as compared to vehicle DMSO ([3]; simulated ischemia, EC50 concentration 18.0 microM): 107 ± 8%
8.8 | 8 | 1.24 | 47 | O=C(O)c1csc(CN(Cc2ccc(F)cc2)Cc2ccc(OCc3ccncc3)cc2)n1 [Compound 9, 2-({[(4-Fluorophenyl)methyl]({[4-(pyridin-4-ylmethoxy)phenyl]methyl})amino}methyl)-1,3-thiazole-4-carboxylic acid] | 12 | 4.7 | 
 |  |  |  | CCOC(=O)c1csc(CN(Cc2ccc(F)cc2)Cc2ccc(OCc3ccccc3)cc2)n1 [Compound 11, Ethyl 2-[({[4-(benzyloxy)phenyl]methyl}[(4-fluorophenyl)methyl]amino)methyl]-1,3-thiazole-4-carboxylate] | 12 | 5.8 | 
> 500 | 54 | 1.5 | 115 | O=C(O)c1csc(CN(Cc2ccncc2)Cc2ccc(OCc3ccccc3)cc2)n1 [Compound 13, 2[({[4-(Benzyloxy)phenyl]methyl}(pyridin-4-ylmethyl)amino)methyl]-1,3-thiazole-4-carboxylic acid] | 11 | 20 | 
230 | 195 | 19 | 200 | CCOC(=O)c1csc(CN(Cc2ccc(OCc3cccnc3)cc2)Cc2cccnc2)n1 [Compound 17, Ethyl 2-[({[4-(pyridin-3-ylmethoxy)phenyl]methyl}(pyridin-3-ylmethyl)amino)methyl]-1,3-thiazole-4-carboxylate] | 15 | 47 | 
230 | > 500 | 13 | > 500 | CCOC(=O)c1csc(CN(Cc2ccc(F)cc2)Cc2ccc(OCc3ccncc3)cc2)n1 [Compound 18, Ethyl 2-({[(4-fluorophenyl)methyl]({[4-(pyridin-4-ylmethoxy)phenyl]methyl})amino}methyl)-1,3-thiazole-4-carboxylate] | 2.9 | 0.04 | 
> 500 | 200 | 19 | 190 | CCOC(=O)c1csc(CN(Cc2ccc(OCc3ccncc3)cc2)Cc2cccnc2)n1 [Compound 19, Ethyl 2-{[(pyridin-3-ylmethyl)({[4-(pyridin-4-ylmethoxy)phenyl]methyl})amino]methyl}-1,3-thiazole-4-carboxylate] | 27 | 7.3 | 
 |  |  |  | O=C(O)c1c[nH]c(CNCc2ccc(OCc3cccnc3)cc2)n1 [Compound 31 HCl, 2-[({[4-(Pyridin-3-ylmethoxy)phenyl]methyl}amino)methyl]-1H-imidazole-4-carboxylic acid] |  |  | Cytoprotective effect, % cell survival as compared to vehicle DMSO ([3]; normoxia, EC5 concentration 0.25 microM): 108 ± 4%; Cytoprotective effect, % cell survival as compared to vehicle DMSO ([3]; normoxia, EC10 concentration 1.0 microM): 103 ± 3%; Cytoprotective effect, % cell survival as compared to vehicle DMSO ([3]; normoxia, EC20 concentration 4.0 microM): 106 ± 4%; Cytoprotective effect, % cell survival as compared to vehicle DMSO ([3]; normoxia, EC50 concentration 16.0 microM): 103 ± 3%; Cytoprotective effect, % cell survival as compared to vehicle DMSO ([3]; simulated ischemia, EC5 concentration 0.25 microM): 116 ± 8 %; Cytoprotective effect, % cell survival as compared to vehicle DMSO ([3]; simulated ischemia, EC10 concentration 1.0 microM): 107 ± 3%; Cytoprotective effect, % cell survival as compared to vehicle DMSO ([3]; simulated ischemia, EC20 concentration 4.0 microM): 126 ± 2 %; Cytoprotective effect, % cell survival as compared to vehicle DMSO ([3]; simulated ischemia, EC50 concentration 16.0 microM): 127 ± 3 %
> 500 | > 500 | 500 |  | FC(F)(F)c1cnc(CCc2ccccc2)[nH]1 [Compound 35, 2-Phenethyl-5-trifluoromethyl-1H-imidazole] |  |  | 
> 500 | > 500 | 300 |  | O=C(O)c1cnc(CCc2ccccc2)[nH]1 [Compound 36, 2-Phenethyl-3H-imidazole-4-carboxylic acid] |  |  | 
145 | 66 | > 500 |  | COC(=O)c1cnc(CCc2ccccc2)[nH]1 [Compound 37, 2-Phenethyl-3H-imidazole-4-carboxylic acid methyl ester] |  |  | 
80 | 62 | 54 |  | O=C(c1cnc(CCc2ccccc2)[nH]1)N1CCCC1 [Compound 38, (2-Phenethyl-3H-imidazol-4-yl)-pyrrolidin-1-yl-methanone] |  |  | 
> 500 | > 500 | 340 |  | FC(F)(F)c1cnc(-c2ccccc2)[nH]1 [Compound 39, 2-Phenyl-5-trifluoromethyl-1H-imidazole] |  |  | 
250 | 137 | 165 |  | O=C(O)c1cnc(-c2ccccc2)[nH]1 [Compound 40, 2-Phenyl-3H-imidazole-4-carboxylic acid] |  |  | 
